One block for each compound: values may come before it.
Legend:
[1] = Method: (§1) The solubility and pH stability of the GLP-1/glucagon agonist peptide MEDI0382 (FIG. 1) were studied. In particular, solubility was studied in different types of buffers, different buffer ionic strengths, pure water, and organic solvents. The aqueous pH solubility of MEDI0382 was also assessed. The chemical stability (as measured by reverse phase ultra performance liquid chromatography (RP-UPLC)) and secondary structure (as measured by Fourier transform infrared spectroscopy (FTIR) and UV circular dichoism spectroscopy (CD)) were also assessed at various pHs. Furthermore, the effect of pH on the kinetics of MEDI0382 aggregation were also assessed in a thioflavin T binding (ThT) assay.
The effect of excipients on fiber formation was analyzed by evaluating whether or not amino acids and divalent ions could prevent fiber formation at pH 7.5. […] The fiber formation was evaluated using a Thioflavin T binding assay (ThT) assay.
(§2) The fiber formation was again evaluated using a ThT assay. […] Chemical degradation associated with these excipients was also monitored for one month for samples kept at 5° C. and 40° C. using an RP-UPLC assay. […] Particle formation associated with these excipients was also monitored by visual inspection after shaking stress (800 rpm for 4 hours). […]

[2] = Visual inspection: gel formation, particles, shaking and freeze/thaw stress; format: physicochemical
Method: Samples were stressed by temperature and freeze/thaw and analyzed for purity, aggregation, visual inspection, and for the presence of sub-visible particles.
In the freeze/thaw studies, the formulation was tested in the presence or absence of polysorbate 80 (0.3% v/v) with either 2 mg/ml or 5 mg/ml protein. Fresh solutions (glass vials, Type I, transparent) were frozen by three freeze/thaw cycles. After the thawing, samples were kept at 5 and 25° C. for up to 3 weeks and analysed by visual inspection. Samples without freezing were run in parallel as control. In a second study, the container closer compatibility was assessed by using Nalgene HDPE (more suitable for toxicological studies). In this case, only formulation at 5 mg/mL was analysed.
In these experiments, formulations with 0.03% polysorbate 80 were compared to formulations without polysorbate 80. The samples were incubated for 7 days at 50° C. […] All of the samples were then incubated for another 12 days.

[3] = MEDI0382 solubility studies (buffers, ionic strength, water, organic solvents, aqueous pH); format: physicochemical
Method: The aqueous pH solubility of MEDI0382 was also assessed.

[4] = remark: listed apart in the source
Method: as §1, with “assay. […]” for “assay.”
The six selected formulations were used in a 1-month stability study at refrigerated (2-8° C.) and stressed conditions (37° C.). Samples were assessed at time zero, 2 weeks, and 4 weeks by RP-UPLC, DLS, Visual Inspection, Micro-Flow Imaging (MFI), Size Exclusion Chromatography-Multi-Angle Light Scattering (SEC-MALS). […]
as §2

[5] = Dynamic Light Scattering (DLS): particle size, Z-average, hydrodynamic diameter; format: physicochemical; conditions: 50 mM PB pH 7.5, 1.85% w/v PG, 0.03% v/v PS80; one month
Method: The principles for formulation ranking used in Table 3 were the loss of peptide purity (main area peak/total peak area) at accelerated conditions (purity loss≤3% per 1 week at 40° C., low risk; purity loss>5% week at 40° C.=high risk) and physical stability at 40 or 5° C. (Z-average<10 nm=low risk, >10 nm=medium risk; >100 nm=high risk).
The six selected formulations were used in a 1-month stability study at refrigerated (2-8° C.) and stressed conditions (37° C.). Samples were assessed at time zero, 2 weeks, and 4 weeks by RP-UPLC, DLS, Visual Inspection, Micro-Flow Imaging (MFI), Size Exclusion Chromatography-Multi-Angle Light Scattering (SEC-MALS).
Purity (RP-UPLC), aggregation (DLS), peptide concentration (A280), High order structure (SEC-MALS)(multiangle (laser) light scattering), Sub-visible particles (MFI), Osmolarity, Conformational stability (Circular dichroism (CD) spectroscopy) and pH tests were conducted. The following temperatures were tested: 5° C., 15° C.; 25° C., 40° C. and −80° C. The following time points were tested: 0, 2 weeks, 1, 2, 3, 6, 9, 12, 24 and 36 months.
In another set of experiments, the impact of sorbitol (0-250 mM), propylene glycol (0-2%), and phenol (0-2%) in a pH range 7-8.2 on the physical stability of MEDI0382 was explored. Physical stability was monitored using DLS (DynaPro plate reader, Wyatt) and the ThT assay.

[6] = Secondary structure by FTIR and UV circular dichroism; format: physicochemical
[7] = Container compatibility: syringe stability and adsorption to containers; format: physicochemical; conditions: 50 mM Phosphate buffer, 1.85% (w/v) propylene glycol, pH 7.4
Method: The chemical stability of MEDI0382 was tested in 50 mM Phosphate buffer, 1.85% (w/v) of propylene glycol, pH 7.4.
This MEDI0382 formulation was stable in BD Plastipak syringes for at least 4 hours at room temperature.
However, an adsorption of the peptide to the containers at low levels of dosing (below 0.1 mg/ml) was identified. This MEDI0382 formulation was ruled out because the low doses of drug likely to be required to achieve a pharmacological (agonistic) effect could not feasibly be delivered in this way.

all microorganisms = test: Preservative efficacy test (PET), overall compliance with European Pharmacopeia / USP criteria; format: cell-based
Method: (§3) In preservative efficacy assays, a short study was performed whereby two microorganisms were used to assess the microbial efficacy of the prepared formulations (Staphylococcus aureus and E. coli). Samples were tested at t=0 (bulk) and t=1 month after storage at 25° C.
A multivariate robustness study was carried out to investigate the impact of m-cresol content, sodium phosphate concentration, and m-cresol content on the preservative efficacy of the 5 mg/mL multi-dose formulation. […] A total of 20 bulk formulations were prepared and tested in accordance with the European Pharmacopeia Edition 10.0 Section 5.1.3 and the United States Pharmacopeia 42 <51>.

Staphylococcus aureus = test: Preservative efficacy test (PET; Ph. Eur. / USP), S. aureus; conditions: 5.5 mg/mL MEDI0382 multi-dose formulation
Method: as §3
Preservative efficacy testing (PET) was also performed on 2 and 5 mg/ml MEDI0382 formulations containing 20 mM sodium phosphate buffer, 220 mM sorbitol, and m-Cresol (at the concentrations indicated in Table 35) at pH.
A total of 20 bulk formulations were prepared and tested in accordance with the European Pharmacopeia Edition 10.0 Section 5.1.3 and the United States Pharmacopeia 42 <51>.

optimal pH for physical stability [1]: > 7.8
gel formation ([2]; 0.03% polysorbate 80, pH 6.9, 7 days at 50° C.): turned into a solid gel
gel formation ([2]; 0.03% polysorbate 80, pH 8.3, 7 days at 50° C.): did not
visual inspection ([2]; 50 mM PB pH 7.5, 1.85% w/v PG, 0.03% v/v PS80, 2-month storage): gel-like-appearance
gel formation ([2]; without polysorbate 80, pH 6.9, another 12 days): turned into a soft gel
Organic solvent solubility [3]: Low
Physical state [3]: Amorphous powder, hygroscopic, sensitive
Preferable buffers solubility [3]: Sodium phosphate and TRIS
solubility ([3]; buffers of different ionic strengths, read-out: Ranges of ionic strength solubility): ≥ 25 mM
Aqueous solution pH solubility ([3]; pH 1 to 3 and 6 to 13): increases at pH 1 to 3 and 6 to 13
Aqueous solution pH solubility ([3]; pH 4.1 to 4.5): Insoluble at pH 4.1 to 4.5, solubility
pH at which both physical and chemical stability are improved [4]: ≥ 8
concentration at which adsorption of the peptide to the containers was identified [7]: below 0.1 mg/ml
time stable in BD Plastipak syringes ([7]; room temperature): at least 4 hours
Structure (SMILES): CCCCCCCCCCCCCCCC(=O)N[C@@H](CCC(=O)NCCCC[C@H](NC(=O)[C@H](CC(=O)O)NC(=O)[C@H](CO)NC(=O)[C@@H](NC(=O)[C@H](Cc1ccccc1)NC(=O)[C@@H](NC(=O)CNC(=O)[C@H](CCC(N)=O)NC(=O)[C@H](CO)NC(=O)[C@@H](N)Cc1c[nH]cn1)[C@@H](C)O)[C@@H](C)O)C(=O)N[C@@H](CO)C(=O)N[C@@H](CCC(=O)O)C(=O)N[C@@H](Cc1ccc(O)cc1)C(=O)N[C@@H](CC(C)C)C(=O)N[C@@H](CC(=O)O)C(=O)N[C@@H](CO)C(=O)N[C@@H](CCC(=O)O)C(=O)N[C@@H](CCCNC(=N)N)C(=O)N[C@@H](C)C(=O)N[C@@H](CCCNC(=N)N)C(=O)N[C@@H](CC(=O)O)C(=O)N[C@@H](Cc1ccccc1)C(=O)N[C@H](C(=O)N[C@@H](C)C(=O)N[C@@H](Cc1c[nH]c2ccccc12)C(=O)N[C@@H](CC(C)C)C(=O)N[C@@H](CCC(=O)O)C(=O)N[C@@H](C)C(=O)NCC(=O)NCC(=O)O)C(C)C)C(=O)O [MEDI0382]
pH impact on aggregation kinetics: lag time ([1]; pH 8): kinetics (higher lag time at pH 8 (93 hours),
Z-average values (DLS) [5]: increased sharply over the month at all temperatures, except at −80 °C
pH impact on secondary structure [6]: increases α-helix in alkaline conditions (7 to 8)

Structure (SMILES): Oc1ccccc1 [phenol]
phenol concentration needed to achieve the less stringent European (“B”) criteria (all microorganisms; with 1 mg/mL MEDI0382): at least 0.44 % w/v
phenol concentration needed to achieve the less stringent European (“B”) criteria (all microorganisms; with 2 mg/mL MEDI0382): at least 0.54 % w/v

Structure (SMILES): Cc1cccc(O)c1 [meta-cresol]
minimum meta-cresol needed to achieve Ph. Eur. Criteria A (all microorganisms): ≥ 0.34 % (w/v)
minimum meta-cresol needed to consistently achieve Ph. Eur. Criteria B (all microorganisms): ≥ 0.27 % (w/v)
m-cresol concentration at which USP and EP criteria A are consistently met for all microorganisms except Staphylococcus aureus (EP criteria B met) (all microorganisms; 5.5 mg/mL MEDI0382 multi-dose formulation): ≥ 0.24 % (w/v)
m-cresol concentration required for a log reduction consistently greater than 3 at 24 hours (Staphylococcus aureus): ≥ 0.28 % (w/v)

Structure (SMILES): Cc1cccc(O)c1 [Hedinger m-Cresol, m-Cresol]
European criteria passed (PET) (all microorganisms; highest concentrations tested, S. aureus and E. coli): passed the more stringent European (“A”) criteria
